Measurements reported in paper PMC3996151, “Safety and pharmacological characterization of the molecular tweezer CLR01 – a broad-spectrum inhibitor of amyloid proteins’ toxicity” (BMC Pharmacology & Toxicology, 2014).

Key:
[1] = Solubility in aqueous solutions; assay type: physicochemical
[2] = In vitro dephosphorylation by brain homogenate (inorganic phosphate release); assay type: in vitro ADME, mouse; details: positive control substrate, 1.5 mg mouse-brain homogenate
Description: Potential dephosphorylation of CLR01 was analyzed by incubating 100 nmol CLR01 with 0.08 units of alkaline phosphatase (ALP; calf intestinal alkaline phosphatase, Promega, Madison, Wisconsin) for 60 min at 60°C. One enzymatic unit is defined as the amount of enzyme required for catalyzing the hydrolysis of 1 μmol of p-nitrophenylphosphate per minute. p-Nitrophenylphosphate disodium salt at 5–50 nmol (Fisher, Waltham, Massachusetts) was used for generation of a standard curve. The amount of inorganic phosphate generated was measured spectrophotometrically using an EnzChek Phosphate Assay kit (Life Technologies, Carlsbad, California) according to the manufacturer’s instructions on a DU-640 spectrophotometer (Beckman Coulter, Brea, California) at λ = 360 nm. Baseline values were subtracted from readings and compared to the standard curve resulting from serial ALP reactions to calculate the amount of inorganic phosphate. Similarly, potential dephosphorylation of CLR01 by brain homogenates was measured. For these experiments, one brain hemisphere was homogenized by sonication in the presence of cOmplete protease-inhibitor cocktail (Roche, Penzberg, Germany). Protein concentration was measured using a BCA Protein Assay Kit (Pierce, Rockford, Illinois). […]

Q: For `O=P(O)(O)Oc1c2c(c(O)c3c1C1CC3c3cc4c(cc31)C1CC4c3ccccc31)C1CC2c2cc3c(cc21)C1CC3c2ccccc21` [monophosphate metabolite], which “Solubility in aqueous solutions” value [1] is on record?
A: soluble at millimolar concentrations

Q: With `O=[N+]([O-])c1ccc(OP(=O)(O)O)cc1` [p-nitrophenylphosphate, reference compound] as the compound, how does the “Dephosphorylation by brain homogenate, % of the activity of 0.8 enzymatic units of ALP” value [2] read?
A: 99 - 130%
